Results as given in patent US20250099033A1, “HIGH THROUGHPUT SCREENING METHOD FOR THE IDENTIFICATION OF PS[…]” (FRIEDRICH MIESCHER INSTITUTE FOR BIOMEDICAL RESEARCH, priority 2022, published 2025).
Entries after “also recorded” stand apart in the source; their conditions may differ.

System: Tlx3 positive layer 5 IT neurons
Assay: Widefield calcium imaging of dorsal cortex in Tlx3-Cre x Ai148 mice (GCaMP6 in layer 5 IT neurons), before and after drug injection
Format: in vivo
Conditions: for Pearson's correlation of activity between cortical regions (all region pairs): single injection, after vs naïve; for long-range activity correlations (drug induced difference, normalized to naïve): region pairs above 0.9 of the bregma-lambda distance
Source text: All animal procedures were approved by and carried out in accordance with guidelines of the Veterinary Department of the Canton Basel-Stadt, Switzerland. The mice used in this study were kept on a C57BL/6 background and were of the following genotype: 6 C57/Bl6 (Charles River Laboratories), 4 Emx1-Cre mice (Gorski et al., 2002), 4 Cux2-CreERT2 (Franco et al., 2012), 7 Scnn1a-Cre (Madisen et al., 2010), 15 Tlx3-Cre(PL56) (Gerfen et al., 2013), 3 Ntsr1-Cre (Gong et al., 2007), 2 PV-Cre (Hippenmeyer et al., 2005), 6 VIP-Cre (Taniguchi et al., 2011), 5 Sst-Cre (Taniguchi et al., 2011) were used for widefield calcium imaging. Ai148 ((Daigle et al., 2018), Jackson Laboratories, stock #030328) mice were used as breeders to drive GCaMP6f in Cre positive neurons. 7 C57BL/6 were used for experiments controlling for hemodynamic responses. To induce expression of Cre in the Cux2-CreERT2 line, mice were kept for at least 1 week on Tamoxifen containing food (Envigo, 400 mg Tamoxifen per kg of food) as their only food source. Mice were group housed in a vivarium (light/dark cycle: 12/12 hours). Experimental mice used were of both sexes.
For all surgical procedures, mice were anesthetized using a mixture of Fentanyl (0.05 mg/kg; Actavis), Midazolam (5.0 mg/kg; Dormicum, Roche) and Medetomidine (0.5 mg/kg; Domitor, Orion). In a subset of mice (6 C57/Bl6, 4 Emx1-Cre, 4 Sst-Cre mice) we injected an AAV coated with the PHP.eb capsid (Chan et al., 2017) retroorbitally ([…] each eye of at least 10^13 GC/ml) to drive expression pan-neuronally or cell type specificly of GCaMP6 under either the Ef1α or hSyn promoter. For hemodynamic response control experiments, the inventors used an AAV PHP.eb Ef1α-GFP to pan-neuronally transfect GFP. To improve optical access to the cortex, they implanted crystal skull cranial windows (Kim et al., 2016). Prior to removing the skull plate overlying dorsal cortex, they zeroed bregma with a digital readout attached to the stereotax for later use as a landmark. Superglue (Pattex) was used to close the craniotomy. […] A custom-machined titanium head bar was attached to the skull using dental cement (Paladur, Heraeus). An epifluorescence overview image was taken to mark reference points on the dorsal cortical surface. Anesthesia was antagonized by an intraperitoneal injection of a mixture of Flumazenil (0.5 mg/kg; Anexate, Roche) and Atipamezole (2.5 mg/kg; Antisedan, Orion Pharma), analgesia was achieved by injecting Buprenorphine (0.1 mg/kg; Reckitt Benckiser Healthcare (UK) Ltd.) and Metacam (5 mg/kg; Boehringer Ingelheim), and mice were subsequently returned to their home cage. Imaging commenced not before 1 week after headbar implantation and not before at least 3 weeks had passed in the cases in which AAVs had been used to transfect neurons. Clozapine (Sigma), Aripiprazole (Otsuka Pharmaceutical), Haloperidol (Janssen) and Amphetamine (Hänseler) were intraperitoneally injected at […] body weight, respectively.
For all experiments we used a virtual reality setup as previously described (Leinweber et al., 2014). Mice were head-fixed and free to run on a spherical, air supported Styrofoam ball. Rotation of the ball was coupled to movement in a virtual reality environment. A virtual corridor was projected (Samsung SP-F10M) onto a toroidal screen positioned in front of the mice covering approximately 240 degrees horizontally and 100 degrees vertically of the field of view. […]

CC(N)Cc1ccccc1 (stereo not drawn) [Amphetamine]
Pearson's correlation of activity between cortical regions (all region pairs): did not affect activity correlations; also recorded: absent

O=C1CCc2ccc(OCCCCN3CCN(c4cccc(Cl)c4Cl)CC3)cc2N1 [Aripiprazole]
long-range activity correlations (drug induced difference, normalized to naïve): significantly reduced | short-range activity correlations (drug induced difference, normalized to naïve) (region pairs below 0.9 of the bregma-lambda distance): significantly reduced | Pearson's correlation of activity between cortical regions (all region pairs): mimicked the decorrelation of dorsal cortex activity observed with Clozapine; also recorded: decorrelation of the activity patterns of Tlx3 positive layer 5 IT neurons was preserved

O=C(CCCN1CCC(O)(c2ccc(Cl)cc2)CC1)c1ccc(F)cc1 [Haloperidol]
long-range activity correlations (drug induced difference, normalized to naïve): reduced long-range activity correlations | Pearson's correlation of activity between cortical regions (all region pairs): mimicked the decorrelation of dorsal cortex activity observed with Clozapine; also recorded: decorrelation of the activity patterns of Tlx3 positive layer 5 IT neurons was preserved
